In US20080090881A1, “TREATMENT OF DIABETES WITH THIAZOLIDINEDIONE AND METFORMIN” (SmithKline Beecham plc, priority 1997, published 2008):

Assay: clinical
Conditions: male, human, plasma, po
Experimental: Sixteen male volunteers, aged 22 to 55 years, received oral Compound (I) (2 mg Q 12 h), M (500 mg Q12 h), or the combination, each for 4 days.

Work on `CN(CCOc1ccc(CC2SC(=O)NC2=O)cc1)c1ccccn1` (stereo not drawn) [Compound (I), 5-[4-[2-(N-methyl-N-(2-pyridyl)amino)ethoxy]benzyl]thiazolidine-2,4-dione] yielded a Tmax of 3 h and a half-life of 3.24 h.
`CN(C)C(=N)N=C(N)N` [M, 1,1-Dimethylbiguanidine, reference compound] gave a Tmax of 3 h.
